Results on 52 compounds are retold here after PubChem BioAssay AID1996.

The structures appear in SMILES notation. ≈ marks a conversion by molar mass, not a printed value.

For this data set the following is noted: buffer; pH 7.4; 200.0 µM.
`C=CCSc1nc2c(c(=O)[nH]c(=O)n2C)n1Cc1ccccc1`: the solubility (kinetic) (usually solubility judged after dilution from a stock solution rather than from solid) worked out at 3.9 µg/mL (≈ 11.9 µM).
In turn, `CC(C)c1cc(CN2CCOCC2)cc(C(C)C)c1O` gave a solubility (kinetic) above 41.6 µg/mL.
Under `CC(C)c1ccc(N2C=Nc3ccc(C(C)C)cc3C2)cc1` stands 2.8 µg/mL (≈ 9.58 µM); under `O=C(COC(=O)c1ccccc1O)NC1CCCc2ccccc21` (configuration not stated), 4.6 µg/mL (≈ 14.1 µM); under `CC(=O)c1cccc(NC(=O)C2COc3ccccc3O2)c1` (configuration not stated), 44.1 µg/mL (≈ 148 µM).
Regarding `COc1cccc(NC(=O)C2CCOC2=O)c1` (configuration not stated), the kinetic solubility is above 35.3 µg/mL.
Compound `Cc1cc([N+](=O)[O-])ccc1NCc1ccc2c(c1)OCCO2` returned a solubility (kinetic) of 10.8 µg/mL (≈ 36 µM).
`C=CCN(CC(=O)Nc1cccnc1)S(=O)(=O)c1ccc(Cl)cc1` yielded a solubility (kinetic) above 54.9 µg/mL.
Under `Cc1ccccc1CN(C)C(=O)CNC(=O)c1ccc2ccccc2c1` stands 31.1 µg/mL (≈ 89.8 µM); under `CC1(C(=O)N2CCOCC2)CCCCC1`, 26.3 µg/mL (≈ 124 µM).
On to `COc1cc(CNC2CCCCCCC2)ccc1OCC(N)=O`, for which the kinetic solubility is above 48.1 µg/mL.
`COc1cccc(CC(=O)NC2CCSc3ccccc32)c1` (configuration not stated) gave a solubility (kinetic) of 20.9 µg/mL (≈ 66.7 µM).
Then `CCCN(CC1CCCO1)C(=O)CCc1nnc(-c2cc(C)on2)o1` (configuration not stated), with above 52.3 µg/mL; and `O=C(NC(=O)c1ccccc1)Nc1ccc(Cl)cn1`, with below 0.2 µg/mL; and `CC(c1ccccc1)C1CC(=O)N(c2ccccc2)C1=O` (configuration not stated), with 41.1 µg/mL (≈ 147 µM).
Under `COc1ccc(CN2CCOCCOCCOCCOCC2)cc1` stands above 50.9 µg/mL; under `CC1C(=O)N2CCCc3cc(NS(=O)(=O)c4ccc(F)cc4)cc1c32` (configuration not stated), above 54.1 µg/mL.
Under `CCOc1cc2c3c(c1)C(C)=CC(C)(C)N3C(=O)C2=O` stands below 0.6 µg/mL.
On to `Cc1ccc2c(NC(=O)c3ccco3)cccc2n1`, for which the solubility (kinetic) turned out to be 37.2 µg/mL (≈ 147 µM).
In turn, `CC(=O)Nc1nonc1-c1nc2ccccc2n1C` displayed a kinetic solubility of 3.1 µg/mL (≈ 12.1 µM).
The compound `COc1cc(CN2CCCCCC2)cc([N+](=O)[O-])c1O` had a kinetic solubility of 35.6 µg/mL (≈ 127 µM).
Turning to `CC1CN(S(=O)(=O)c2cc(C(=O)N(C)Cc3cccs3)ccc2Cl)CC(C)O1` (configuration not stated), the solubility (kinetic) turned out to be 64.6 µg/mL (≈ 146 µM). This solubility kinetic is about 1.8-fold higher than that of the compound before.
Then `N#Cc1cccc(NC(=O)CSc2n[nH]c(=O)[nH]c2=O)c1`, with above 45.5 µg/mL.
`Cc1ccc(OCC(=O)N2C(C)CCCC2C)c([N+](=O)[O-])n1` (configuration not stated) yielded a kinetic solubility above 46.1 µg/mL.
`CC(=O)c1c(-c2ccc(Cl)cc2Cl)noc1C` gave a solubility (kinetic) of 17.5 µg/mL (≈ 64.8 µM).
In turn, `CCN(CC)C(=S)SC1=CCS(=O)(=O)C1` returned a solubility (kinetic) of 26.8 µg/mL (≈ 101 µM). Against the preceding compound, the solubility kinetic is about 1.5-fold higher.
Regarding `CCn1c(CCc2ccccc2)nnc1SCC(N)=O`, the solubility (kinetic) is above 43.6 µg/mL.
The compound `CC1CCCCC1NC(=O)COC(=O)COc1ccccc1Cl` (configuration not stated) returned a kinetic solubility of 17.8 µg/mL (≈ 52.4 µM).
`CN(C)/C(=N\S(=O)(=O)c1ccccc1)c1ccccc1` had a solubility (kinetic) above 43.3 µg/mL.
The compound `CC(OC(=O)c1ccc([N+](=O)[O-])cc1)C(=O)NCC1CCCCC1` (configuration not stated) gave a kinetic solubility of 5.6 µg/mL (≈ 16.7 µM).
`Cc1ccc(S(=O)(=O)NC2CC(C)(C)NC(C)(C)C2)cc1` returned a kinetic solubility of 40.5 µg/mL (≈ 130 µM).
Turning to `CN(CCC#N)C(=O)CC1(Cc2ccccc2)CCOC(C)(C)C1` (configuration not stated), the solubility (kinetic) is above 49.3 µg/mL.
For `CCc1cc2cc(C)cc(C)c2[nH]c1=S`, the solubility (kinetic) was found to be 3.9 µg/mL (≈ 17.9 µM).
On to `CCOC(=O)Cc1csc(NC(=O)CN2C(=O)c3ccccc3C2=O)n1`, for which the solubility (kinetic) turned out to be 54.3 µg/mL (≈ 145 µM). Compared with the last compound, the solubility kinetic is about 14-fold higher.
Under `Cc1cc(CSCc2ccc(Cl)cc2)no1` stands 2.2 µg/mL (≈ 8.67 µM).
Then `Cc1c(C(=O)N2CCC2)oc2ccc(Cl)cc12`, with 15.6 µg/mL (≈ 62.5 µM).
Under `CC(=O)N=c1c(C#N)cc2c(=O)n3cccc(C)c3nc2n1Cc1ccco1` stands 5.1 µg/mL (≈ 13.7 µM); under `COc1ccc(Cl)cc1C(=O)NCc1ccco1`, 31.8 µg/mL (≈ 120 µM); under `CCCCNC(=O)C(=O)Nc1cc2c3c(c1)CCC(=O)N3CCC2`, 1.5 µg/mL (≈ 4.55 µM).
As to `CCCNC(=O)C12CCC(C)(C(=O)O1)C2(C)C` (configuration not stated), the solubility (kinetic) was above 35.9 µg/mL.
Under `COC(=O)/C(=C\C=C\c1ccccc1)NC(=O)c1ccccc1` stands 6.3 µg/mL (≈ 20.5 µM).
Turning to `Cc1ccc2[nH]c(C(=O)Nc3ccc(F)cc3)cc2c1`, the kinetic solubility was below 0.3 µg/mL.
Compound `COc1ccc(NC(=O)C(CC(=O)O)C(C)c2ccccc2)cc1` (configuration not stated) registered a solubility (kinetic) above 49.1 µg/mL.
The compound `CCOC(=O)c1c(-c2ccc(OC)cc2)cn2ccccc12` had a kinetic solubility below 0.6 µg/mL.
In the case of `Cc1cccc(C)c1NC(=O)N1CCCCCCC1`, the kinetic solubility turned out to be 38.8 µg/mL (≈ 149 µM).
With `CC(=O)N1CC(=O)Nc2ccc(Cl)cc2C1c1ccccc1` (configuration not stated), the kinetic solubility was above 47.2 µg/mL.
Then `CC1(c2ccc3ccccc3c2)NC(=O)N(CC(N)=O)C1=O` (configuration not stated), with above 44.6 µg/mL; and `Cc1ccc(CCC(=O)Nc2ccccc2C(=O)O)o1`, with above 41 µg/mL; and `Cc1cc(C)nc(Nc2cccc3ccccc23)n1`, with 18.7 µg/mL (≈ 75 µM).
Compound `O=C(COC(=O)Cc1ccccc1F)NCCc1ccccc1` displayed a solubility (kinetic) above 47.3 µg/mL.
`S=C(Nc1cccc(Cl)c1)N1CCN(c2ccccn2)CC1` yielded a kinetic solubility of 0.5 µg/mL (≈ 1.5 µM).
Turning to `Cc1ccc(S(=O)(=O)N2CC=C(C(=O)NCCC(C)C)CC2)cc1`, the solubility (kinetic) came to 41.7 µg/mL (≈ 119 µM). This solubility kinetic lies about 83-fold higher than the previous one.
